PubChem BioAssay AID623910 (NMMLSC, 2012)

Test system: mouse and human plasma, RED dialysis, LC/MS/MS, 4 h
Experiment: fraction of compound bound to plasma proteins – biochemical, mouse and human plasma, ADME assay for GPR30 and estrogen receptor ligands, late-stage follow-up (AID 623910)

CC(=O)c1ccc2c(c1)[C@@H]1C=CC[C@@H]1[C@H](c1cc3c(cc1Br)OCO3)N2
plasma protein binding (at 1 µM): 99.8% | plasma protein binding (human plasma binding, at 10 µM): 99.8% | plasma protein binding (mouse plasma binding, at 1 µM): 99.8% | plasma protein binding (mouse plasma binding, at 10 µM): 99.5%
